pEC50: −log10 of the molar value. In brackets after ≈: the same amount, converted by molar mass.
Legend:
[1] = Kinetic solubility of the compound in buffer at pH 7.4 after 16 to 19 hrs by UV absorbance assay; assay type: physicochemical; conditions: read-out: Kinetic_solubility
[2] = target: Sphingosine 1-phosphate receptor 1 (Homo sapiens, UniProt P21453); experiment: Agonist activity at human S1P1 receptor expressed in EDG1-bla U2OS cells incubated for 18 hrs prior to GenBlazer substrate addition by beta-arrestin recruitment assay; assay type: cell-based
Chain of Sphingosine 1-phosphate receptor 1 (P21453 whole entry): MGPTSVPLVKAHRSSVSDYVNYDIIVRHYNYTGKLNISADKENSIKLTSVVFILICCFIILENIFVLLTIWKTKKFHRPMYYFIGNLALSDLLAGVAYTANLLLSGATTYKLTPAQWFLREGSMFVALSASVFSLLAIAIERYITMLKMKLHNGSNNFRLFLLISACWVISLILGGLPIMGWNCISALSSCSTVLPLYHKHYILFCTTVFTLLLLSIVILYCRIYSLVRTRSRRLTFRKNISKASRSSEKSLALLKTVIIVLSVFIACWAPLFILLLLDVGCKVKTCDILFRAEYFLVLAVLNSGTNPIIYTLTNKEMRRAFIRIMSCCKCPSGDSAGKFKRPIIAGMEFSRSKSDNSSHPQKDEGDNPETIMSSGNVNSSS

[3] = target: Sphingosine 1-phosphate receptor 3 (Homo sapiens, UniProt Q99500); experiment: Agonist activity at human S1P3 receptor expressed in EDG3-bla U2OS cells incubated for 18 hrs prior to GenBlazer substrate addition by beta-arrestin recruitment assay; assay type: cell-based
Chain of Sphingosine 1-phosphate receptor 3 (Q99500 whole entry): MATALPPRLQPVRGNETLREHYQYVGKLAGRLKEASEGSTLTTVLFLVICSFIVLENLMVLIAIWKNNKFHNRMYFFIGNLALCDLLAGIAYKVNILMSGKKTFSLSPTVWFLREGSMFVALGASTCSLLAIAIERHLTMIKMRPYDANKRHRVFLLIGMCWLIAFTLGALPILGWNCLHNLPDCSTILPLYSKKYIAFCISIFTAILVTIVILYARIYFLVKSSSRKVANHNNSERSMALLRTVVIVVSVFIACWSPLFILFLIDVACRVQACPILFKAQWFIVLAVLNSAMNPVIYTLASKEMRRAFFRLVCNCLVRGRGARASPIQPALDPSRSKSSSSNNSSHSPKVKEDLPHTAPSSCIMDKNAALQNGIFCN

HepG2 = experiment: Toxicity in human HepG2 cells assessed as phospholipidosis at 0.1 to 200 uM after 48 hrs by Hoechst […] staining-based lipidTOX assay; assay type: cell-based; conditions: hepg2, 48 h
[4] = Equilibrium solubility of the compound in citric acid monohydrate/Na2HPO4 dihydrate buffer at pH 6.8 after 24 hrs by RP-HPLC analysis; assay type: physicochemical
Homo sapiens = organism: Homo sapiens; experiment: Selectivity ratio of EC50 for human S1P5 receptor to EC50 for human S1P1 receptor
[5] = Ratio of drug level in brain to plasma (unknown origin); assay type: ADME, cell-free; conditions: read-out: BPR
[6] = target: Sphingosine 1-phosphate receptor 5 (Homo sapiens, UniProt Q9H228); experiment: Agonist activity at human S1P5 receptor expressed in EDG8-bla U2OS cells incubated for 18 hrs prior to GenBlazer substrate addition by beta-arrestin recruitment assay; assay type: cell-based
Chain of Sphingosine 1-phosphate receptor 5 (Q9H228 whole entry): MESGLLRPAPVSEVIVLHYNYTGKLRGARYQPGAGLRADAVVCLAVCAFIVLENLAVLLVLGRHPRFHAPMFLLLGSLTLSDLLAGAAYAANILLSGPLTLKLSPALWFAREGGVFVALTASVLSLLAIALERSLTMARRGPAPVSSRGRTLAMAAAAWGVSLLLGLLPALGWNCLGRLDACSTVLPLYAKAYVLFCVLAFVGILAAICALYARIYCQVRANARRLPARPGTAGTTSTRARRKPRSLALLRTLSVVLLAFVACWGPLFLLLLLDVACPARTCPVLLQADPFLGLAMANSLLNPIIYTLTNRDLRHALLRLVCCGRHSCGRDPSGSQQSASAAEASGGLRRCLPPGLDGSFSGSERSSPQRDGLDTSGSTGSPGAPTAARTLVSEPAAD

| SMILES | solubility kinetic [1] [µg/mL] | pEC50 [2] | further results |
| --- | --- | --- | --- |
| Cc1cc(-c2nnc(-c3cc(F)c(OC[C@H](N)CO)cc3Cl)s2)cc(NC(C)C)n1 | 9 (≈ 19.9 µM) | 7.74 |  |
| Cc1cc(-c2nc(-c3cnc(OC[C@H]4COC(=O)N4)c(C)c3)no2)cc(CC(C)C)n1 | 0.9 (≈ 2.13 µM) | 8.85 |  |
| Cc1cc(-c2nnc(-c3cc(F)c(O[C@H]4COC[C@H]4O)cc3Cl)s2)cc(NC(C)C)n1 (racemic) | 0.2 (≈ 0.43 µM) | 6.83 |  |
| Cc1cc(-c2nc(-c3cc(C)c(OC[C@H]4COC(=O)N4)cn3)no2)cc(NC(C)C)n1 | 0.2 (≈ 0.471 µM) | 7.74 |  |
| Cc1cc(-c2nc(-c3cnc(OC[C@H]4COC(=O)N4)cn3)no2)cc(CC(C)C)n1 | 27 (≈ 65.8 µM) | 6.70 |  |
| Cc1cc(-c2nnc(-c3cc(F)c(O[C@H]4CCC(=O)NC4)cc3Cl)s2)cc(NC(C)C)n1 | 0.8 (≈ 1.68 µM) | 6.80 |  |
| CC(C)Oc1ccc(-c2nc(-c3cc(F)c(OC[C@H](N)CO)cc3Cl)no2)cc1C#N | < 0.1 | 10.00 |  |
| CC(=O)N1CCOC[C@@H]1COc1cc(Cl)c(-c2noc(-c3cc(C)nc(NC(C)C)c3)n2)cc1F | 0.1 (≈ 0.198 µM) | 8.39 |  |
| Cc1cc(-c2nc(-c3cc(F)c(OC[C@H]4COC(=O)N4)cc3Cl)no2)cc(NC(C)C)n1 | 0.1 (≈ 0.217 µM) | 9.22 | Activity (HepG2): Non-toxic |
| CC(C)Oc1ccc(-c2nnc(-c3cc(F)c(OC[C@H](N)CO)cc3Cl)s2)cc1Cl | < 0.1 | 7.49 | pEC50 [3]: < 5.00 |
| Cc1cc(-c2nc(-c3cc(F)c(O[C@@H]4CCC(=O)NC4)cc3Cl)no2)cc(NC(C)C)n1 | 0.1 (≈ 0.217 µM) | 9.10 |  |
| CC(C)Oc1ncc(-c2nc(-c3cc(F)c(OC[C@H](N)CO)cc3Cl)no2)cc1C#N | < 0.1 | 9.30 |  |
| Cc1cc(-c2nc(-c3cc(F)c(O[C@H]4COC[C@H]4O)cc3Cl)no2)cc(NC(C)C)n1 (racemic) | 0.1 (≈ 0.223 µM) | 9.10 |  |
| CCOc1ncc(-c2nc(-c3cc(F)c(OC[C@H](N)CO)cc3Cl)no2)cc1Cl | < 0.1 | 7.21 |  |
| CC(C)Cc1ccc(-c2nc(-c3ccc([C@@H](C)N[C@H]4C[C@@H](C(=O)O)C4)cc3)no2)cc1 |  | 8.72 | pEC50 [3]: < 5.00 |
| Cc1cc(-c2nc(-c3cc(F)c(O[C@@H]4CNC(=O)C4)cc3Cl)no2)cc(NC(C)C)n1 | 0.1 (≈ 0.224 µM) | 8.46 |  |
| Cc1cc(-c2nc(-c3ccc(OC[C@H]4COC(=O)N4)nc3)no2)cc(NC(C)C)n1 | 0.3 (≈ 0.731 µM) | 8.14 |  |
| Cc1cc(-c2nnc(-c3cc(F)c(O[C@@H]4CNC(=O)C4)cc3Cl)s2)cc(NC(C)C)n1 | 0.6 (≈ 1.3 µM) | 6.25 |  |
| Cc1cc(-c2nc(-c3cnc(OC[C@H]4COC(=O)N4)c(C)n3)no2)cc(NC(C)C)n1 | 2 (≈ 4.7 µM) | 8.60 |  |
| Cc1cc(-c2nc(-c3cc(C)c(OC[C@H]4COC(=O)N4)cn3)no2)cc(CC(C)C)n1 | 23 (≈ 54.3 µM) | 7.20 |  |
| Cc1cc(-c2nnc(-c3cc(F)c(O[C@@H]4CCC(=O)NC4)cc3Cl)s2)cc(NC(C)C)n1 | 1 (≈ 2.1 µM) | 6.52 |  |
| Cc1cc(-c2nnc(-c3cc(F)c(OC[C@H](N)CO)cc3Cl)s2)cc(CC(C)C)n1 | 25 (≈ 55.4 µM) | 9.10 |  |
| CCCCCCCCc1ccc(CCC(N)(CO)CO)cc1 [FINGOLIMOD] |  |  | pEC50 [3]: < 5.00 |
| Cc1cc(-c2nc(-c3ccc(OC[C@H]4COC(=O)N4)c(F)c3)no2)cc(NC(C)C)n1 | 0.1 (≈ 0.234 µM) | 9.30 |  |
| CCCCCCCCCCCCC/C=C/[C@@H](O)[C@@H](N)COP(=O)(O)O |  | 8.55 | pEC50 [3]: 7.10 |
| Cc1nc(CC(C)C)cc(-c2nc(-c3ccc(O[C@@H]4CCC(=O)NC4)c(F)c3)no2)n1 | > 40 | 7.30 | solubility thermodynamic at 24 h [4]: 27 µg/mL (≈ 63.5 µM); Ratio EC50 (Homo sapiens): 7; pEC50 [3]: < 5.00; Kp [5]: 0.1; pEC50 [6]: 6.44 |
| Cc1cc(-c2nc(-c3cc(F)c(OC[C@H]4CNC(=O)CO4)cc3Cl)no2)cc(NC(C)C)n1 | 0.1 (≈ 0.21 µM) | 7.85 |  |

Further lines, with some results ahead:

| solubility kinetic [1] [µg/mL] | pEC50 [2] | SMILES | further results |
| --- | --- | --- | --- |
| < 0.1 | 6.98 | Cc1nc(-c2nnc(-c3cc(F)c(OC[C@H](N)CO)cc3Cl)s2)ccc1OC(C)C |  |
| 0.1 (≈ 0.217 µM) | 9.70 | Cc1cc(-c2nc(-c3cc(F)c(O[C@H]4CCC(=O)NC4)cc3Cl)no2)cc(NC(C)C)n1 |  |
| 0.1 (≈ 0.244 µM) | 8.55 | Cc1cc(-c2nc(-c3ccc(OC[C@H]4COC(=O)N4)cc3)no2)cc(NC(C)C)n1 |  |
| < 0.1 | 6.89 | Cc1cc(-c2nnc(-c3cc(F)c(OC[C@H](N)CO)cc3Cl)s2)cc(OC(C)C)n1 |  |
| 0.1 (≈ 0.217 µM) | 9.10 | Cc1cc(-c2nc(-c3cc(F)c(OC[C@H]4CCC(=O)N4)cc3Cl)no2)cc(NC(C)C)n1 |  |
| < 0.1 | 7.89 | CC(C)Oc1ncc(-c2nnc(-c3cc(F)c(OC[C@H](N)CO)cc3Cl)s2)cc1C#N |  |
| 0.3 (≈ 0.628 µM) | 7.07 | Cc1cc(-c2nnc(-c3cc(F)c(OC[C@H]4COC(=O)N4)cc3Cl)s2)cc(NC(C)C)n1 |  |
| 1 (≈ 1.92 µM) | 6.51 | CC(=O)N1CCOC[C@@H]1COc1cc(Cl)c(-c2nnc(-c3cc(C)nc(NC(C)C)c3)s2)cc1F |  |
| < 0.1 | 7.89 | CC(C)Oc1ncc(-c2nc(-c3cc(F)c(OC[C@H](N)CO)cc3Cl)no2)cc1Cl |  |
| < 0.1 | 7.00 | CC(C)Oc1ncc(-c2nnc(-c3cc(F)c(OC[C@H](N)CO)cc3Cl)s2)cc1Cl |  |
| < 0.1 | 8.39 | CC(C)Oc1ccc(-c2nc(-c3cc(F)c(OC[C@H](N)CO)cc3Cl)no2)cc1Cl | pEC50 [3]: < 5.00 |
| 0.8 (≈ 1.63 µM) | 6.26 | Cc1cc(-c2nnc(-c3cc(F)c(OC[C@H]4CNC(=O)CO4)cc3Cl)s2)cc(NC(C)C)n1 |  |
| 26 (≈ 54.9 µM) | 7.49 | Cc1nc(CC(C)C)cc(-c2nc(-c3cc(F)c(O[C@@H]4CCC(=O)N(C)C4)cc3Cl)no2)n1 | solubility thermodynamic at 24 h [4]: 10 µg/mL (≈ 21.1 µM); Ratio EC50 (Homo sapiens): 7; pEC50 [3]: < 5.00; Kp [5]: 0.1; pEC50 [6]: 6.67 |
| 0.9 (≈ 2.19 µM) | 6.92 | Cc1cc(-c2nc(-c3ccc(OC[C@H]4COC(=O)N4)cn3)no2)cc(NC(C)C)n1 |  |
| 0.9 (≈ 1.88 µM) | 6.60 | Cc1cc(-c2nnc(-c3cc(F)c(OC[C@H]4OCC[C@@H]4O)cc3Cl)s2)cc(NC(C)C)n1 |  |
| 17 (≈ 40.1 µM) | 8.10 | Cc1cc(-c2nc(-c3ccc(OC[C@H]4COC(=O)N4)c(C)n3)no2)cc(NC(C)C)n1 |  |
|  | 7.70 | Cc1cc(-c2nc(-c3cc(F)c(OC[C@H](N)CO)cc3Cl)no2)cc(CC(C)C)n1 |  |
| > 40 | 7.96 | Cc1cc(-c2nc(-c3cc(C)c(OC[C@@H]4CCC(=O)N4)c(C)n3)no2)cc(CC(C)C)n1 | solubility thermodynamic at 24 h [4]: 21 µg/mL (≈ 48.2 µM); Ratio EC50 (Homo sapiens): 7; pEC50 [3]: < 5.00; pEC50 [6]: 6.47 |
| > 40 | 7.43 | Cc1cc(-c2nc(-c3ccc(OC[C@H]4COC(=O)N4)c(C)n3)no2)cc(CC(C)C)n1 |  |
| < 0.1 | 6.23 | CCOc1ncc(-c2nnc(-c3cc(F)c(OC[C@H](N)CO)cc3Cl)s2)cc1Cl |  |
| 0.2 (≈ 0.458 µM) | 7.17 | Cc1cc(-c2nc(-c3cc(F)c(OC[C@H](N)CO)cc3Cl)no2)cc(OC(C)C)n1 |  |
| 25 (≈ 60.8 µM) | 6.82 | Cc1cc(-c2nc(-c3cnc(OC[C@H]4COC(=O)N4)cn3)no2)cc(NC(C)C)n1 |  |
| 0.3 (≈ 0.688 µM) | 8.40 | Cc1cc(-c2nc(-c3cc(F)c(OC[C@H](N)CO)cc3Cl)no2)cc(NC(C)C)n1 |  |
| 8 (≈ 18.3 µM) | 7.31 | Cc1nc(-c2nc(-c3cc(F)c(OC[C@H](N)CO)cc3Cl)no2)ccc1OC(C)C |  |
| 0.1 (≈ 0.216 µM) | 8.22 | Cc1cc(-c2nc(-c3cc(F)c(OC[C@H]4OCC[C@@H]4O)cc3Cl)no2)cc(NC(C)C)n1 |  |
| > 40 | 7.38 | Cc1cc(-c2nc(-c3ccc(O[C@H]4CCC(=O)NC4)c(C)n3)no2)cc(NC(C)C)n1 | solubility thermodynamic at 24 h [4]: 12 µg/mL (≈ 28.4 µM); Ratio EC50 (Homo sapiens): 7; pEC50 [3]: < 5.00; pEC50 [6]: 6.46 |
| 0.9 (≈ 1.89 µM) | 6.48 | Cc1cc(-c2nnc(-c3cc(F)c(OC[C@H]4CCC(=O)N4)cc3Cl)s2)cc(NC(C)C)n1 |  |
